For twelve compounds, inhibition and Ki results are on record in patent US8846937B2, “Mono quaternary ammonium salts and methods for modulating neuronal nicotinic acetylcholine receptors” (University of Kentucky Research Foundation, priority 2006, dated 2014).

In assay [1] the target is T1, Rat Striatal Nicotinic Receptors ([^3H]NIC binding) (Rattus norvegicus, UniProt P09483+P12390).
T1 construct: Whole brain, excluding cortex and cerebellum, was homogenized; from tissue; host or cells: rat brain membranes (whole brain excluding cortex and cerebellum)
The experiment in a line: Inhibition of [^3H]nicotine binding to brain membranes. The settings on record: 3 nM [^3H]NIC; for inhibition at 0.1 µM: % inhibition at 100 nM analog, nonspecific 10 μM nicotine. As for the experimental part: (§1) Test compounds of Formula (I), representing the mono quaternary nicotine analogs of the present invention, were evaluated to determine the effect of a test compound on nicotine-binding and methyllycaconitine-binding mediated by nicotine acetylcholine receptors.
(§2) Homogenate was centrifuged (25,000 g, 15 min, 4° C.). Pellets were resuspended in 20 volumes of buffer and incubated at 37° C., for 10 min, cooled to 4° C. and centrifuged (25,000 g, 15 min, 4° C.). Pellets were resuspended and centrifuged using the same conditions. […] Upon use, final pellets were resuspended in ˜20 volumes of assay buffer. Samples (250 μl) contained 100-140 μg of membrane protein, 3 nM [^3H]nicotine or 3 nM [^3H]methyllycaconitine (MLA), and test compounds of Formula (I) (100 nM) in assay buffer containing 50 mM Tris. A control sample absent test compounds of Formula (I) was also prepared. In the [^3H]nicotine-binding assay and [^3H]MLA-binding assay, nonspecific-binding was determined in the presence of 10 μM nicotine and 10 μM MLA, respectively. Incubations proceeded for 60 min at a room temperature using 96-well plates, and were terminated by harvesting on Unifilter-96 GF/B filter plates presoaked in 0.5% polyethylenimine, using a Packard FilterMate harvester. After washing 5 times with 350 μl ice-cold assay buffer, the filter plates were dried (60 min, 4° C.), bottom-sealed, and filled with Packard's MicroScint 20 cocktail (40 μl/well). After 60 min, filter plates were top-sealed, and levels of radioactivity were determined using a Packard TopCount. Protein concentrations were determined using the Bradford dye-binding procedure using bovine serum albumin as a standard protein.
Specific binding in the [^3H]NIC binding assay is calculated as the difference between the total binding of 3 nM [^3H]NIC and nonspecific binding in the presence of 10 μM cold nicotine. […] Analog-induced inhibition of nicotine-evoked [^3H]DA release is calculated as a percent of that in the absence of the mono quaternary ammonium analog. ND indicates not determined.

Assay [2] concerns nicotinic receptors, NIC-evoked [^3H]DA release from rat striatal slices. The assay is described as follows: Inhibition of nicotine-evoked [^3H]dopamine release from superfused rat striatal slices. The class given is cell-based. The conditions noted are these: 1 h, 100 nM analog superfused 60 minutes prior to NIC (10 μM). As for the experimental part: Rat striatal slices (500 μm thickness, 6-8 mg wet weight) were incubated for 30 minutes in Krebs buffer (118 mM NaCl, 4.7 mM KCl, 1.2 mM MgCl2, 1.0 mM NaH2PO4, 1.3 mM CaCl2, 11.1 mM glucose, 25 mM NaHCO3, 0.11 mM L-ascorbic acid, and 0.004 mM disodium EDTA at pH 7.4, and saturated with 95% O2/5% CO2) in a metabolic shaker at 34° C. Slices were rinsed with 15 mL of fresh buffer, and were incubated for an additional 30 minutes in fresh buffer containing 0.1 μM [^3H]dopamine (DA; 6 slices/3 mL). Subsequently, slices were rinsed with 15 mL of fresh buffer and transferred to a glass superfusion chamber. Slices were superfused (1.0 mL/min) for 60 minutes with Krebs buffer containing nomifensine (10 μM) and pargyline (10 μM), and maintained at 34° C., pH 7.4, with continual aeration (95% O2/5% CO2). Two five minute samples (5 mL each) were collected to determine basal outflow of [^3H]DA. The test compounds of Formula (I) were added to the superfusion buffer after the collection of the second sample, and were maintained in the buffer until 12 consecutive five minute samples were collected. Subsequently, S-(−)-nicotine (10 μM) was added to the buffer, and an additional 12 consecutive five minute samples were collected. At the end of the experiment, each slice was solubilized, and the [^3H]content of the tissue determined.
Radioactivity in the superfusate and tissue samples was determined by liquid scintillation spectroscopy. Fractional release of tritium collected in each sample was divided by the total tritium present in the tissue at the time of sample collection, and the fractional release of tritium collected was expressed as a percentage of total tritium. Basal [^3H]outflow was calculated from the average of the tritium collected in the two five minute samples just before addition of a test compound of Formula (I). The sum of the increase in collected tritium resulting from either exposure to a test compound of Formula (I), or exposure to S(−) nicotine in the absence and presence of a test compound of Formula (I) equaled total [^3H]overflow. [^3H]Overflow was calculated by subtracting the [^3H]outflow during an equivalent period of pre-stimulation from the values in samples collected during and after drug exposure. Inasmuch as the radio-labeled compounds were not separated and identified, the tritium collected in superfusate is referred to as either [^3H]outflow or [^3H]overflow, rather than as [^3H]DA. [^3H]Overflow primarily represents [^3H]DA in the presence of nomifensine and pargyline in the superfusion buffer.
The quaternary analogs of Formula (I) were also evaluated for their ability to inhibit NIC-evoked [^3H]DA release. In these experiments, the striatal slices were superfused for 60 minutes with 100 nM concentration of the quaternary analogs prior to NIC (10 μM) exposure. Antagonist activity was evaluated by comparing the NIC-evoked [^3H]overflow in the absence and presence of the analogs. The relative order of potency of the quaternary analogs of Formula (I) for inhibition of NIC-evoked [^3H]DA release from rat striatal slices is illustrated in Table 1.
^aData are % inhibition at 100 nM concentration of the mono quaternary analogs for at least 1-3 independent experiments; with the exception of when a Ki value in μM is provided, in which case a full concentration effect was evaluated. Specific binding in the [^3H]NIC binding assay is calculated as the difference between the total binding of 3 nM [^3H]NIC and nonspecific binding in the presence of 10 μM cold nicotine. Specific binding for the [^3H]MLA binding assay is calculated as the difference between the total binding of 2.5 nM [^3H]MLA to the receptors alone and its nonspecific binding in the presence of 1 μM cold MLA. Analog-induced inhibition of nicotine-evoked [^3H]DA release is calculated as a percent of that in the absence of the mono quaternary ammonium analog. ND indicates not determined.

Assay [3] deals with T2, Rat Striatal Nicotinic Receptors ([^3H]MLA binding) (Rattus norvegicus, UniProt Q05941).
T2 construct: Whole brain, excluding cortex and cerebellum, was homogenized; from tissue; host or cells: rat brain membranes (whole brain excluding cortex and cerebellum)
The assay is described as follows: Inhibition of [^3H]methyllycaconitine (MLA) binding to brain membranes. The settings on record: for inhibition at 0.1 µM: % inhibition at 100 nM analog, 2.5 nM [^3H]MLA, nonspecific 1 μM MLA (footnote). As to the method: as §1
as §2, with “Samples (250 μl) contained 100-140 μg of membrane protein, 3 nM [^3H]nicotine or 3 nM [^3H]methyllycaconitine (MLA), and test compounds of Formula (I) (100 nM) in assay buffer containing 50 mM Tris.” left out, “In the [^3H]nicotine-binding assay and [^3H]MLA-binding assay, nonspecific-binding was determined in the presence of 10 μM nicotine and 10 μM MLA, respectively.” left out, “protein. […]” for “protein.”

T1 sequence (P09483 31-630): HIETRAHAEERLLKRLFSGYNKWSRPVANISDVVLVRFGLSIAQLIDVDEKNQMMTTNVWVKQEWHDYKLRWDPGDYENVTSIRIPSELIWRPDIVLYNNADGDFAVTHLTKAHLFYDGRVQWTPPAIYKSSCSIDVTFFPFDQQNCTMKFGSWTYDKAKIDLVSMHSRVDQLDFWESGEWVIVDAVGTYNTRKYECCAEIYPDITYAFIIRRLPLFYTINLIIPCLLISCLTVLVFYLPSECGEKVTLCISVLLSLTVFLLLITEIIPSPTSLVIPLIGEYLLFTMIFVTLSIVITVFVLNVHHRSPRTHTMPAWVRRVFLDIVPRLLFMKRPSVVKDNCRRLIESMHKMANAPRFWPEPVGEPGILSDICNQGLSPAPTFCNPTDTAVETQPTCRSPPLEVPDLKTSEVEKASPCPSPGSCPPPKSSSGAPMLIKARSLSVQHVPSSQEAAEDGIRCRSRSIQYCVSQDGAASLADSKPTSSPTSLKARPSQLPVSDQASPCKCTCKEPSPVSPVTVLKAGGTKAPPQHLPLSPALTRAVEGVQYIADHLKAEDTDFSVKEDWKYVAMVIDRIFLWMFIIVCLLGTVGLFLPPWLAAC
T1 sequence (P12390 25-500): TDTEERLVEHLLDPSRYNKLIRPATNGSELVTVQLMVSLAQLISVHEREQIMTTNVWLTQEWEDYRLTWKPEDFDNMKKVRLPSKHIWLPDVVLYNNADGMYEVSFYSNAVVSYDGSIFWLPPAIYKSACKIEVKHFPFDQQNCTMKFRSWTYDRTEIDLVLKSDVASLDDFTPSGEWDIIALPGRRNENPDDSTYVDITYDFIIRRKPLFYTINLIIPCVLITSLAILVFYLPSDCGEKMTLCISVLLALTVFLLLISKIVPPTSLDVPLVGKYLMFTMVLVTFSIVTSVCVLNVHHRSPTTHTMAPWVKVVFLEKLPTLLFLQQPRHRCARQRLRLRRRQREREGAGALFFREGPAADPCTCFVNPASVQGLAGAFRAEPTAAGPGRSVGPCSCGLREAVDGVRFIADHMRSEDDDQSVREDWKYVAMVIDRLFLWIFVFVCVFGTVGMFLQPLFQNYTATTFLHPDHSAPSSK
T2 sequence (Q05941 23-502): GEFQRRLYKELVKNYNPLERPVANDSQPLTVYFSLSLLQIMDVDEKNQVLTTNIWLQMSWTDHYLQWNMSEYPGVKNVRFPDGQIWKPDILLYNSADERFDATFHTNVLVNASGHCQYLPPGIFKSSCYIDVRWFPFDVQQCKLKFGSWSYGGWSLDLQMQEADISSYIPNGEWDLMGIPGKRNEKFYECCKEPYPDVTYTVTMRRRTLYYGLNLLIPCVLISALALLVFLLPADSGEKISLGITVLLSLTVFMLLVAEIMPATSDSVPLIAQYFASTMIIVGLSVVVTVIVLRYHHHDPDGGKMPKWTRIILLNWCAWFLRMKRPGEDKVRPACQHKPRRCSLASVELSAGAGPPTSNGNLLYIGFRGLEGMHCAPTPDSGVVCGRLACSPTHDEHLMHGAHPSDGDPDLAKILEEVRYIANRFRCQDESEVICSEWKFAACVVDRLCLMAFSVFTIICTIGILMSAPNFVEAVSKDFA

As to `Cc1cc(C)c[n+](CCCCCCCCCCCCCc2cccnc2)c1`, the results for the inhibition at 0.1 µM in assay [1], in assay [2] and in assay [3] were 0%, 35% and 0%, respectively.

Turning to `Cc1cc[n+](CCCC#Cc2ccc(-c3ccccc3)cc2)cc1`, the inhibition (as a rule, the share of the control response that was lost under treatment) at 0.1 µM in assay [1] stood at 0%; in assay [2], 40%; in assay [3] it was 3%.

Regarding `Cc1cc[n+](CCCC#Cc2ccc(-c3ccccc3)cc2)cc1C`, the inhibition at 0.1 µM came to 0% in assay [1], 20% in assay [2] and 8% in assay [3].

For `Cc1ccc[n+](CCCCCCCCc2ccccc2)c1`, the Ki (as a rule, a measure of affinity in units of concentration, obtained from inhibition or displacement) in assay [1] (full concentration effect) is greater than 100 µM; in assay [3] (full concentration effect, 2.5 nM [^3H]MLA (footnote)) it was greater than 100 µM. For the same compound, at 0.1 µM the inhibition in assay [2] was 0%.

On to `CCCCc1ccc(CCCC[n+]2cccc(CCCO)c2)cc1`, for which the inhibition at 0.1 µM in assay [1] was 0%; in assay [2], 64%; in assay [3] it was 0%.

On to `Cc1ccc[n+](CCCCCc2ccc(-c3ccccc3)cc2)c1`, for which the inhibition at 0.1 µM in assay [1] stood at 4%; in assay [2] it was 55%; in assay [3], 7%.

For the compound `Cc1cc[n+](CCCCCCCCc2ccccc2)c(C)c1`, the inhibition at 0.1 µM came to 0% in assay [1], 14% in assay [2] and 9% in assay [3].

`Cc1ccc[n+](CCCCCCCCCCCCCc2cccnc2)c1`: the values for the inhibition at 0.1 µM in assay [1], in assay [2] and in assay [3] were 0%, 31% and 2%, respectively.

Take `Cc1cccc[n+]1CCCC#Cc1ccc(-c2ccccc2)cc1`: the inhibition at 0.1 µM in assay [1] turned out to be 2%; in assay [2] it was 45%; in assay [3] it was 7%.

Regarding `CCCCc1ccc(CCCC[n+]2cccc(C)c2)cc1`, the results for the inhibition at 0.1 µM in assay [1], in assay [2] and in assay [3] were 4%, 33% and 2%, respectively.

In the case of `CCCCc1ccc(C#CCC[n+]2ccc(C)cc2)cc1`, the inhibition at 0.1 µM in assay [1] stood at 6%; in assay [2] it was 11%; in assay [3] it was 3%.

In the case of `CCCCc1ccc(CCCC[n+]2ccc(C)cc2)cc1`, the inhibition at 0.1 µM stood at 5% in assay [1], 58% in assay [2] and 0% in assay [3].
